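Compound exposure: 48 hours, 5 concentrations, 96-well plates. GI50 marks 50% less growth.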 The source made the active and inactive calls. Rule as the data show it: active = GI50 up to about 1.1 µM and inactive = higher.
Legend:
Assay in all cases: NCI-60 cell line screen, 48 h
[1] = test system: NCI-H23
[2] = test system: NCI-H460
[3] = test system: DU-145
[4] = test system: UO-31
[5] = test system: MCF7
[6] = test system: SN12C
[7] = test system: SF-539
[8] = test system: MDA-N
[9] = test system: UACC-62
[10] = test system: COLO 205
[11] = test system: IGROV-1
[12] = test system: MDA-MB-435
[13] = test system: SF-268
[14] = test system: HL-60
[15] = test system: SNB-75
[16] = test system: CCRF-CEM
[17] = test system: SK-MEL-2
[18] = test system: PC-3
[19] = test system: MDA-MB-231
[20] = test system: HOP-92

Measured: GI50

CCOC(=O)/C(C(=O)c1ccc[nH]1)=C1/CCCN1C
inactive: [1] > 100 µM | [2] > 100 µM | [3] > 100 µM | [4] > 100 µM | [5] > 100 µM | [6] > 100 µM | [7] > 100 µM | [8] > 100 µM | [9] > 100 µM | [10] > 100 µM | [11] > 100 µM | [12] > 100 µM | [13] > 100 µM | [14] > 100 µM | [15] > 100 µM | [16] > 100 µM | [17] > 100 µM | [18] > 100 µM | [19] > 100 µM

COc1cc(O)c2c(=O)c3cccc(C)c3[nH]c2c1
inactive: [1] > 10 µM | [2] > 10 µM | [3] > 10 µM | [5] > 10 µM | [6] > 10 µM | [7] > 10 µM | [8] > 10 µM | [9] > 10 µM | [10] > 10 µM | [11] > 10 µM | [12] > 10 µM | [13] > 10 µM | [14] > 10 µM | [15] 6.62 µM | [16] 7.6 µM | [17] > 10 µM | [18] > 10 µM | [19] > 10 µM

COc1ccc(Cn2nc(OCc3ccccn3)c3cc([N+](=O)[O-])ccc32)cc1
inactive: [1] > 100 µM | [2] > 100 µM | [3] > 100 µM | [4] > 100 µM | [5] > 100 µM | [6] > 100 µM | [7] 33.3 µM | [8] > 100 µM | [9] 35.7 µM | [11] > 100 µM | [12] > 100 µM | [13] > 100 µM | [14] > 100 µM | [16] > 100 µM | [17] 49.5 µM | [18] > 100 µM | [19] > 100 µM

COc1ccc(C2c3cc4c(cc3OC(N3CCOCC3)C2C)OCO4)cc1 (configuration not stated)
inactive: [1] 39 µM | [2] 26.1 µM | [3] 27.7 µM | [4] 19.9 µM | [5] 26.1 µM | [6] 37.3 µM | [7] 21.4 µM | [8] 16.9 µM | [9] 27.6 µM | [10] 27.2 µM | [11] 30.3 µM | [20] 4.14 µM | [12] 20.7 µM | [13] 27.9 µM | [14] 21.1 µM | [15] 35.9 µM | [16] 20.3 µM | [17] 22.4 µM | [18] 22.3 µM

Cc1ccc(S(=O)(=O)NC(=O)NC(CC(=O)O)C(=O)O)cc1 (configuration not stated)
inactive: [1] > 100 µM | [2] > 100 µM | [3] > 100 µM | [4] > 100 µM | [5] > 100 µM | [6] > 100 µM | [7] > 100 µM | [8] > 100 µM | [9] > 100 µM | [10] > 100 µM | [11] > 100 µM | [20] > 100 µM | [13] > 100 µM | [14] > 100 µM | [15] > 100 µM | [16] > 100 µM | [17] > 100 µM | [18] > 100 µM | [19] > 100 µM

CC(C)(C)C1=C(Br)C(C(C)(C)C)OP1(=O)O (configuration not stated)
inactive: [1] > 100 µM | [2] > 100 µM | [3] > 100 µM | [4] > 100 µM | [5] > 100 µM | [6] > 100 µM | [7] > 100 µM | [8] > 100 µM | [9] > 100 µM | [10] > 100 µM | [11] > 100 µM | [20] > 100 µM | [12] > 100 µM | [13] > 100 µM | [14] > 100 µM | [15] > 100 µM | [17] > 100 µM | [18] > 100 µM

O=C(NNS(=O)(=O)c1ccc(Br)cc1)c1ccc(Cl)cc1NC(=O)C12CC3CC(CC(C3)C1)C2
inactive: [1] 14.2 µM | [2] 8.34 µM | [3] 14.5 µM | [4] 11.7 µM | [5] 11.7 µM | [6] 18.9 µM | [7] 17.3 µM | [8] 14.2 µM | [9] 12.4 µM | [10] 12 µM | [11] 11.9 µM | [20] 12.2 µM | [12] 12.4 µM | [13] 11.4 µM | [14] 18.9 µM | [15] 14.2 µM | [16] 14.6 µM | [17] 11.8 µM | [18] 15.9 µM

COc1ccc(-c2cc3ccccc3oc2=O)cc1OC
inactive: [1] > 100 µM | [3] > 100 µM | [4] > 100 µM | [5] > 100 µM | [6] > 100 µM | [7] > 100 µM | [8] > 100 µM | [9] > 100 µM | [10] > 100 µM | [11] > 100 µM | [20] > 100 µM | [12] > 100 µM | [13] > 100 µM | [14] > 100 µM | [15] 60.3 µM | [16] > 100 µM | [17] > 100 µM | [19] > 100 µM

CN(C)c1ccc(/C=N/N=C2\C(=O)Nc3c(Cl)cc(Cl)cc32)cc1
inactive: [1] 46.3 µM | [2] 41 µM | [4] 22.9 µM | [5] 46.2 µM | [6] > 100 µM | [7] 39.5 µM | [8] 13.5 µM | [9] 42.2 µM | [10] 52.6 µM | [11] 24.2 µM | [20] 92.5 µM | [12] 22.5 µM | [14] 28.6 µM | [15] 22.8 µM | [16] 27.8 µM | [17] 32.1 µM | [18] 29.5 µM | [19] 32.5 µM

O=C(CC(C(=O)O)N1CCOCC1)c1ccccc1 (configuration not stated)
inactive: [1] 20.7 µM | [2] 19.5 µM | [3] 23.6 µM | [5] 15.7 µM | [6] 17.8 µM | [7] 22.6 µM | [8] 17.8 µM | [9] 14.6 µM | [10] 21.1 µM | [11] 26.2 µM | [20] 20.4 µM | [13] 19.5 µM | [14] 20.6 µM | [15] 31 µM | [16] 3.37 µM | [17] 19.1 µM | [18] 16.5 µM | [19] 15.3 µM

CNC(=S)N/N=C/c1ccc([N+](=O)[O-])s1
inactive: [1] > 10 µM | [2] 6.67 µM | [3] > 10 µM | [4] > 10 µM | [6] > 10 µM | [7] > 10 µM | [8] > 10 µM | [9] > 10 µM | [10] 1.81 µM | [11] > 10 µM | [20] > 10 µM | [12] > 10 µM | [13] > 10 µM | [14] 6.44 µM | [15] > 10 µM | [16] > 10 µM | [17] > 10 µM | [18] 3.01 µM | [19] > 10 µM

From ChEMBL document CHEMBL1201862, “PubChem BioAssay data set” (2004)
